Laboratory results: ChEMBL document CHEMBL1151112, “A rapid and sensitive bioassay involving cultured rat glioma cells to screen for substances capable of elevating intracellular cyclic AMP concentration” (J Nat Prod, 1988)
Activity calls are given as the source filed them. The calls are words filed in the database; no cut-off is given here.

Assays:
[1] = Induction of morphological transformation of rat ASK cells into astrocytes after 1 hr by light microscopy; format: functional; conditions: read-out: ED50 (the source's name)
[2] = Induction of morphological transformation of rat ASK cells into astrocytes at 0.004 uM after 1 hr by light microscopy; format: functional
[3] = Induction of morphological transformation of rat ASK cells into astrocytes at 0.02 uM after 1 hr by light microscopy; format: functional
[4] = Induction of morphological transformation of rat ASK cells into astrocytes at 0.10 uM after 1 hr by light microscopy; format: functional
[5] = Induction of morphological transformation of rat ASK cells into astrocytes at 0.5 uM after 1 hr by light microscopy; format: functional
[6] = Induction of morphological transformation of rat ASK cells into astrocytes at 2.5 uM after 1 hr by light microscopy; format: functional
[7] = system: ASK; assay: Induction of morphological transformation of rat ASK cells into astrocytes at 100 ug/ml after 1 hr by light microscopy; format: functional, cell-based
[8] = Induction of morphological transformation of rat ASK cells into astrocytes at 6.2 uM after 1 hr by light microscopy in absence of fetal calf serum; format: functional
[9] = Induction of morphological transformation of rat ASK cells into astrocytes at 12.5 uM after 1 hr by light microscopy in absence of fetal calf serum; format: functional
[10] = Induction of morphological transformation of rat ASK cells into astrocytes at 25 uM after 1 hr by light microscopy in absence of fetal calf serum; format: functional
[11] = Induction of morphological transformation of rat ASK cells into astrocytes at 50 uM after 1 hr by light microscopy in absence of fetal calf serum; format: functional
[12] = Induction of morphological transformation of rat ASK cells into astrocytes at 100 uM after 1 hr by light microscopy in absence of fetal calf serum; format: functional
[13] = Induction of morphological transformation of rat ASK cells into astrocytes at 6.2 uM after 1 hr by light microscopy in presence of fetal calf serum; format: functional
[14] = Cytotoxicity against rat ASK cells at 150 uM; format: cell-based
[15] = Induction of morphological transformation of rat ASK cells into astrocytes at 12.5 uM after 1 hr by light microscopy in presence of fetal calf serum; format: functional
[16] = Induction of morphological transformation of rat ASK cells into astrocytes at 25 uM after 1 hr by light microscopy in presence of fetal calf serum; format: functional
[17] = Induction of morphological transformation of rat ASK cells into astrocytes at 50 uM after 1 hr by light microscopy in presence of fetal calf serum; format: functional
[18] = Induction of morphological transformation of rat ASK cells into astrocytes at 100 uM after 1 hr by light microscopy in presence of fetal calf serum; format: functional
[19] = Induction of morphological transformation of rat ASK cells into astrocytes at 150 uM after 1 hr by light microscopy in presence of fetal calf serum; format: functional
[20] = Induction of morphological transformation of rat ASK cells into astrocytes at 6.2 uM after 1 hr by light microscopy in presence of colchicine; format: functional
[21] = Induction of morphological transformation of rat ASK cells into astrocytes at 12.5 uM after 1 hr by light microscopy in presence of colchicine; format: functional
[22] = Induction of morphological transformation of rat ASK cells into astrocytes at 25 uM after 1 hr by light microscopy in presence of colchicine; format: functional
[23] = Induction of morphological transformation of rat ASK cells into astrocytes at 50 uM after 1 hr by light microscopy in presence of colchicine; format: functional
[24] = Induction of morphological transformation of rat ASK cells into astrocytes at 100 uM after 1 hr by light microscopy in presence of colchicine; format: functional
[25] = Induction of cAMP production in rat ASK cells assessed per 10^6 cells at 50 uM after 1 hr by radioimmunoassay; format: functional

Row | SMILES | EC50 [1] [µM] | Activity [7] | further results
1 | C=C[C@@]1(C)CC(=O)[C@]2(O)[C@@]3(C)[C@@H](O)CCC(C)(C)[C@@H]3[C@H](O)[C@H](OC(C)=O)[C@@]2(C)O1 [COLFORSIN] | 0.07 | – | Activity [2]: 0%; Activity [3]: 15%; Activity [4]: 50%; Activity [5]: 100%; Activity [6]: 100%
2 | CC(C)=CCC[C@](C)(O[C@@H]1O[C@H](CO[C@@H]2O[C@@H](CO)[C@H](O)[C@H]2O)[C@@H](O)[C@H](O)[C@H]1O)[C@H]1CC[C@]2(C)[C@@H]1[C@H](O)C[C@@H]1[C@@]3(C)CC[C@H](O[C@@H]4O[C@H](CO)[C@@H](O)[C@H](O)[C@H]4O[C@@H]4O[C@H](CO)[C@@H](O)[C@H](O)[C@H]4O)C(C)(C)[C@@H]3CC[C@]12C | – | inactive | –
3 | CC(=O)C1=C(/C=C/C(C)=C/C=C/C(C)=C/C(=O)O)C(C)(C)CC1 | > 25 | – | –
4 | C=C[C@@]1(C)CC(=O)[C@@H]2[C@@]3(C)CCCC(C)(C)[C@@H]3[C@H](O)[C@H](OC(C)=O)[C@@]2(C)O1 | > 100 | – | –
5 | C=C[C@@]1(C)CC(O)[C@]2(O)[C@@]3(C)[C@@H](O)CCC(C)(C)[C@@H]3[C@H](O)[C@H](OC(C)=O)[C@@]2(C)O1 (some centres not stated) | 6.53 | – | –
6 | CC(/C=C/C1C(C)CCCC1(C)C)=C\C=C\C(C)=C\C(=O)O (configuration not stated) | < 10 | – | –
7 | CC1=C(/C=C/C(C)=C/C=C/C(C)=C/C=C/C(=O)O)C(C)(C)CCC1 | > 25 | – | –
8 | COC(=O)/C=C(C)/C=C/C=C(C)/C=C/C1=C(C)CCCC1(C)C [RETINOIC ACID METHYL ESTER] | > 25 | – | –
9 | CC(C)=CCC[C@](C)(O)[C@H]1CC[C@]2(C)[C@@H]1[C@H](O)C[C@@H]1[C@@]3(C)CC[C@H](O)C(C)(C)[C@@H]3[C@@H](O[C@@H]3O[C@H](CO)[C@@H](O)[C@H](O)[C@H]3O[C@@H]3O[C@@H](C)[C@H](O)[C@@H](O)[C@H]3O)C[C@]12C | – | inactive | –
10 | CC1=C(/C=C/C(C)C/C=C/C(C)=C/C(=O)O)C(C)(C)CCC1 (configuration not stated) | 10 | – | –
11 | CCOC(=O)/C=C(C)/C=C/C=C(C)/C=C/c1c(C)cc(OC)c(C)c1C [ETRETINATE] | > 25 | – | –
12 | CC(C)=CCC[C@](C)(O[C@@H]1O[C@H](CO)[C@@H](O)[C@H](O)[C@H]1O)[C@H]1CC[C@]2(C)[C@@H]1[C@H](O)C[C@@H]1[C@@]3(C)CC[C@H](O[C@@H]4O[C@H](CO)[C@@H](O)[C@H](O)[C@H]4O[C@@H]4O[C@H](CO)[C@@H](O)[C@H](O)[C@H]4O)C(C)(C)[C@@H]3CC[C@]12C | – | inactive | –
13 | CC1=C(/C=C/C(C)=C/C=C/C(C)=C/C=O)C(C)(C)CCC1 [RETINAL] | < 10 | – | –
14 | C=C[C@@]1(C)CC(=O)[C@]2(O)[C@@]3(C)[C@@H](O)CCC(C)(C)[C@@H]3[C@H](O)[C@H](O)[C@@]2(C)O1 | 3.86 | – | –
15 | CC(C)=CCC[C@](C)(O[C@@H]1O[C@H](CO[C@@H]2OC[C@@H](O)[C@H](O)[C@H]2O)[C@@H](O)[C@H](O)[C@H]1O)[C@H]1CC[C@]2(C)[C@@H]1[C@H](O)C[C@@H]1[C@@]3(C)CC[C@H](O[C@@H]4O[C@H](CO)[C@@H](O)[C@H](O)[C@H]4O[C@@H]4O[C@H](CO)[C@@H](O)[C@H](O)[C@H]4O)C(C)(C)[C@@H]3CC[C@]12C | – | inactive | –
16 | C=C[C@@]1(C)CC(=O)[C@@]23OS(=O)O[C@H]4CCC(C)(C)[C@H]([C@H](O)[C@H](OC(C)=O)[C@@]2(C)O1)[C@]43C (some centres not stated) | 3.12 | – | –
17 | CC(C)=CCC[C@](C)(O[C@@H]1O[C@H](CO)[C@@H](O)[C@H](O)[C@H]1O)[C@H]1CC[C@]2(C)[C@@H]1[C@H](O)C[C@@H]1[C@@]3(C)CC[C@H](O)C(C)(C)[C@@H]3[C@@H](O[C@@H]3O[C@H](CO)[C@@H](O)[C@H](O)[C@H]3O)C[C@]12C | – | inactive | –
18 | CC(=O)OC/C=C(C)/C=C/C=C(C)/C=C/C1=C(C)CCCC1(C)C [GILRETINOL ACETATE] | 10 | – | –
19 | CC(/C=C/C12OC1(C)CCCC2(C)C)=C\C=C\C(C)=C\C(=O)O (configuration not stated) | > 25 | – | –
20 | CC1=C(/C=C/C(C)=C/C=C/C(C)=C\C(=O)O)C(C)(C)CCC1 [ISOTRETINOIN] | < 10 | – | –
21 | CC1=C(CC/C(C)=C/C=C/C(C)=C/C(=O)O)C(C)(C)CCC1 | < 10 | – | –
22 | CC1(C)CC[C@]2(C(=O)O[C@@H]3O[C@H](CO)[C@@H](O)[C@H](O)[C@H]3O)CC[C@]3(C)C(=CC[C@@H]4[C@@]5(C)CC[C@H](O[C@@H]6O[C@H](C(=O)O)[C@@H](O)[C@H](O)[C@H]6O[C@@H]6O[C@H](CO)[C@@H](O)[C@H](O)[C@H]6O)C(C)(C)[C@@H]5CC[C@]43C)[C@@H]2C1 | – | inactive | –
23 | CC(C)=CCC[C@](C)(O[C@@H]1O[C@H](CO[C@@H]2OC[C@H](O)[C@H](O)[C@H]2O)[C@@H](O)[C@H](O)[C@H]1O)[C@H]1CC[C@]2(C)[C@@H]1[C@H](O)C[C@@H]1[C@@]3(C)CC[C@H](O[C@@H]4O[C@H](CO)[C@@H](O)[C@H](O)[C@H]4O[C@@H]4O[C@H](CO)[C@@H](O)[C@H](O)[C@H]4O)C(C)(C)[C@@H]3CC[C@]12C | – | inactive | –
24 | CC(C)=CCC[C@](C)(O[C@@H]1O[C@H](CO)[C@@H](O)[C@H](O)[C@H]1O)[C@H]1CC[C@]2(C)[C@@H]1[C@H](O)C[C@@H]1[C@@]3(C)CC[C@H](O)C(C)(C)[C@@H]3[C@@H](O[C@@H]3O[C@H](CO)[C@@H](O)[C@H](O)[C@H]3O[C@@H]3O[C@@H](C)[C@H](O)[C@@H](O)[C@H]3O)C[C@]12C | – | inactive | –
25 | CC(C)=CCC[C@](C)(O[C@@H]1O[C@H](CO[C@@H]2O[C@H](CO)[C@@H](O)[C@H](O)[C@H]2O)[C@@H](O)[C@H](O)[C@H]1O)[C@H]1CC[C@]2(C)[C@@H]1[C@H](O)C[C@@H]1[C@@]3(C)CC[C@H](O[C@@H]4O[C@H](CO)[C@@H](O)[C@H](O)[C@H]4O[C@@H]4O[C@H](CO)[C@@H](O)[C@H](O)[C@H]4O)C(C)(C)[C@@H]3CC[C@]12C | – | inactive | –
26 | CCNC(=O)/C=C(C)/C=C/C=C(C)/C=C/c1c(C)cc(OC)c(C)c1C [MOTRETINIDE] | > 25 | – | –
27 | CC1=C(/C=C/C(C)=C/C=C/C(C)=C/CO)C(C)(C)CCC1 [RETINOL] | > 25 | – | –
28 | CC1=C(/C=C/C(C)=C/C=C/C(C)=C/C(=O)O)C(C)(C)CCC1 [TRETINOIN] | 10 | – | Activity [8]: 50%; Activity [9]: 70%; Activity [10]: 80%; Activity [11]: 95%; Activity [12]: 100%; Activity [13]: 0%; Activity [14]: Toxic; Activity [15]: 10%; Activity [16]: 20%; Activity [17]: 30%; Activity [18]: 40%; Activity [19]: 65%; Activity [20]: 0%; Activity [21]: 0%; Activity [22]: 15%; Activity [23]: 30%; Activity [24]: 50%; Activity [25]: 20 pmol
29 | COC(C)C1=C(/C=C/C(C)=C/C=C/C(C)=C/C(=O)O)C(C)(C)CC1 (configuration not stated) | < 10 | – | –
